For one assay, the target named is TGF-beta receptor type-2 (Homo sapiens, UniProt P37173).
For assay [1], the target named is AP2-associated protein kinase 1 (Homo sapiens, UniProt Q2M2I8).
The target in assay [2] is T1, Serine/threonine-protein kinase Nek2 (Homo sapiens, UniProt P51955).
T1 sequence (P51955 whole entry): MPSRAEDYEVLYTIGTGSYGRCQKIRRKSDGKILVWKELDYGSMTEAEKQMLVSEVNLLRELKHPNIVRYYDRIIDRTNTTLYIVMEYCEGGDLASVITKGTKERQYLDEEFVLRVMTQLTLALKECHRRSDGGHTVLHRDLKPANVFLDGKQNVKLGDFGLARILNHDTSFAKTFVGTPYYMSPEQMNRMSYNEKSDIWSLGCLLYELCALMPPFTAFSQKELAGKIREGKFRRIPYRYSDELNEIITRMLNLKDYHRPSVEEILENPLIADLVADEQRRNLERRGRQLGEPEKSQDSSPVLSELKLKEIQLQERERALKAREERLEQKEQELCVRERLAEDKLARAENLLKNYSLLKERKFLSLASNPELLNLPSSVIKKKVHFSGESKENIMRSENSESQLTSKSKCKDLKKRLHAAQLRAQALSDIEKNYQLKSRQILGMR

The target in assay [3] is Elongation factor Tu, mitochondrial (Homo sapiens, UniProt P49411).
Assay [4] has as its target T2, Serine/threonine-protein kinase ICK (Homo sapiens, UniProt Q9UPZ9).
T2 sequence (Q9UPZ9 whole entry): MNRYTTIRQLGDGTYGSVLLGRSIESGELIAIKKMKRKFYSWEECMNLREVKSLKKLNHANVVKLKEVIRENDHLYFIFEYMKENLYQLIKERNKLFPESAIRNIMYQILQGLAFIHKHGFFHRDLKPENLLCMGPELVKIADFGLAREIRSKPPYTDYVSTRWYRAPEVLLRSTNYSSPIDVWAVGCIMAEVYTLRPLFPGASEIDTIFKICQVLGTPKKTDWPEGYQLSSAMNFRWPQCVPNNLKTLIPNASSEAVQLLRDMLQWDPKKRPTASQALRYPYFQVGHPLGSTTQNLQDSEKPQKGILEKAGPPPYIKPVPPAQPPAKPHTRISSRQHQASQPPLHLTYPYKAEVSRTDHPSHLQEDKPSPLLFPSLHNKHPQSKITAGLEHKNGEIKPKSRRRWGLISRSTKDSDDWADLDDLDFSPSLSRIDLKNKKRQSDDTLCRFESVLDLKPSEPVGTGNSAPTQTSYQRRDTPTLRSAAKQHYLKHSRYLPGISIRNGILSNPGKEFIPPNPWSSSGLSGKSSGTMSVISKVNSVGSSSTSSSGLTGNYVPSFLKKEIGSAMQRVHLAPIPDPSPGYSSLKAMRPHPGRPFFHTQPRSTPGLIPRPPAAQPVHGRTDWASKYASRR

In assay [5] the target is Receptor-interacting serine/threonine-protein kinase 2 (Homo sapiens, UniProt O43353).
For assay [6], the target named is Tyrosine-protein kinase BTK (Homo sapiens, UniProt Q06187).
Assay [7] concerns the target Myosin light chain kinase, smooth muscle (Homo sapiens, UniProt Q15746).
The target of assay [8] is T3, Cytochrome c1, heme protein, mitochondrial (Homo sapiens, UniProt P08574).
T3 sequence (P08574 whole entry): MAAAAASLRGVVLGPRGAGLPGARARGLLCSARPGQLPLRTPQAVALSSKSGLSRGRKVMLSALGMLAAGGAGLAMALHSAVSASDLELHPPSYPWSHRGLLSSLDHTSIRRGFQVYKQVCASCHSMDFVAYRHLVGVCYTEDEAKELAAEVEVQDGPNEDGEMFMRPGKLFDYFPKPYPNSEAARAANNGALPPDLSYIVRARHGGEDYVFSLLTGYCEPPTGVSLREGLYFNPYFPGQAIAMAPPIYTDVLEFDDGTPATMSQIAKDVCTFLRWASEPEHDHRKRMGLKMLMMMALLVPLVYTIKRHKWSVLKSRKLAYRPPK

Assay [9] concerns the target Casein kinase I isoform alpha (Homo sapiens, UniProt P48729).

Calls of active or inactive are those of the source. For most assays here, no stated cut-off is given here; in the data, actives have a measured Kd and inactives only a lower limit. Where only a bound is given, the exact number is not on record here.

Chain of Receptor-interacting serine/threonine-protein kinase 2 (O43353 whole entry): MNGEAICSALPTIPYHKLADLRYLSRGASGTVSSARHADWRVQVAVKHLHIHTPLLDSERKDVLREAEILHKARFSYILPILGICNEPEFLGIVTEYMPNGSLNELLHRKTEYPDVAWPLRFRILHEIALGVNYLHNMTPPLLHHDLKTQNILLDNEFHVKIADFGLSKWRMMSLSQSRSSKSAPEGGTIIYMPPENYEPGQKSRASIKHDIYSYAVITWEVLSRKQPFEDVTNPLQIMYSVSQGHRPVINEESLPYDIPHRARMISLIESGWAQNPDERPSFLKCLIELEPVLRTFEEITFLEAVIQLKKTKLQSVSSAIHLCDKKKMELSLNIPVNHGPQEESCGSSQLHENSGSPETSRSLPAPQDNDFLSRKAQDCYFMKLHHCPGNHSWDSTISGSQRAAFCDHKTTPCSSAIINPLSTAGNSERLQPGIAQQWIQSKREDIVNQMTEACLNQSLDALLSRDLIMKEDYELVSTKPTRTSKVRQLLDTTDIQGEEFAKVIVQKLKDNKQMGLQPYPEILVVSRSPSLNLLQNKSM
Chain of TGF-beta receptor type-2 (P37173 whole entry): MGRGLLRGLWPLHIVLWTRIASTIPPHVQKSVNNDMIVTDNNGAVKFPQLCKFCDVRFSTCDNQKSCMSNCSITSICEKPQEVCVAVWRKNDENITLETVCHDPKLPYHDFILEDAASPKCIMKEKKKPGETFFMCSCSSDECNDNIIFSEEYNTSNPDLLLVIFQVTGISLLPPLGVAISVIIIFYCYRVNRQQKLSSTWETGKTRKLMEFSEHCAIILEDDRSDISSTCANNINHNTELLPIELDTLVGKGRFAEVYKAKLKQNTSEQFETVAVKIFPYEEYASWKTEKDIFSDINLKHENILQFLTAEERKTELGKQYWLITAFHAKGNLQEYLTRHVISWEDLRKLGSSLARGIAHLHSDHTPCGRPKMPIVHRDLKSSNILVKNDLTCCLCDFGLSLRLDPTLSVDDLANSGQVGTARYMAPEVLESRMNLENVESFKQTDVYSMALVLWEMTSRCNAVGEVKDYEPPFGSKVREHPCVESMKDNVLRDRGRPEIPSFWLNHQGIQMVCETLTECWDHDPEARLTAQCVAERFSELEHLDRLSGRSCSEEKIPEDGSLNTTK
Chain of Myosin light chain kinase, smooth muscle (Q15746 whole entry): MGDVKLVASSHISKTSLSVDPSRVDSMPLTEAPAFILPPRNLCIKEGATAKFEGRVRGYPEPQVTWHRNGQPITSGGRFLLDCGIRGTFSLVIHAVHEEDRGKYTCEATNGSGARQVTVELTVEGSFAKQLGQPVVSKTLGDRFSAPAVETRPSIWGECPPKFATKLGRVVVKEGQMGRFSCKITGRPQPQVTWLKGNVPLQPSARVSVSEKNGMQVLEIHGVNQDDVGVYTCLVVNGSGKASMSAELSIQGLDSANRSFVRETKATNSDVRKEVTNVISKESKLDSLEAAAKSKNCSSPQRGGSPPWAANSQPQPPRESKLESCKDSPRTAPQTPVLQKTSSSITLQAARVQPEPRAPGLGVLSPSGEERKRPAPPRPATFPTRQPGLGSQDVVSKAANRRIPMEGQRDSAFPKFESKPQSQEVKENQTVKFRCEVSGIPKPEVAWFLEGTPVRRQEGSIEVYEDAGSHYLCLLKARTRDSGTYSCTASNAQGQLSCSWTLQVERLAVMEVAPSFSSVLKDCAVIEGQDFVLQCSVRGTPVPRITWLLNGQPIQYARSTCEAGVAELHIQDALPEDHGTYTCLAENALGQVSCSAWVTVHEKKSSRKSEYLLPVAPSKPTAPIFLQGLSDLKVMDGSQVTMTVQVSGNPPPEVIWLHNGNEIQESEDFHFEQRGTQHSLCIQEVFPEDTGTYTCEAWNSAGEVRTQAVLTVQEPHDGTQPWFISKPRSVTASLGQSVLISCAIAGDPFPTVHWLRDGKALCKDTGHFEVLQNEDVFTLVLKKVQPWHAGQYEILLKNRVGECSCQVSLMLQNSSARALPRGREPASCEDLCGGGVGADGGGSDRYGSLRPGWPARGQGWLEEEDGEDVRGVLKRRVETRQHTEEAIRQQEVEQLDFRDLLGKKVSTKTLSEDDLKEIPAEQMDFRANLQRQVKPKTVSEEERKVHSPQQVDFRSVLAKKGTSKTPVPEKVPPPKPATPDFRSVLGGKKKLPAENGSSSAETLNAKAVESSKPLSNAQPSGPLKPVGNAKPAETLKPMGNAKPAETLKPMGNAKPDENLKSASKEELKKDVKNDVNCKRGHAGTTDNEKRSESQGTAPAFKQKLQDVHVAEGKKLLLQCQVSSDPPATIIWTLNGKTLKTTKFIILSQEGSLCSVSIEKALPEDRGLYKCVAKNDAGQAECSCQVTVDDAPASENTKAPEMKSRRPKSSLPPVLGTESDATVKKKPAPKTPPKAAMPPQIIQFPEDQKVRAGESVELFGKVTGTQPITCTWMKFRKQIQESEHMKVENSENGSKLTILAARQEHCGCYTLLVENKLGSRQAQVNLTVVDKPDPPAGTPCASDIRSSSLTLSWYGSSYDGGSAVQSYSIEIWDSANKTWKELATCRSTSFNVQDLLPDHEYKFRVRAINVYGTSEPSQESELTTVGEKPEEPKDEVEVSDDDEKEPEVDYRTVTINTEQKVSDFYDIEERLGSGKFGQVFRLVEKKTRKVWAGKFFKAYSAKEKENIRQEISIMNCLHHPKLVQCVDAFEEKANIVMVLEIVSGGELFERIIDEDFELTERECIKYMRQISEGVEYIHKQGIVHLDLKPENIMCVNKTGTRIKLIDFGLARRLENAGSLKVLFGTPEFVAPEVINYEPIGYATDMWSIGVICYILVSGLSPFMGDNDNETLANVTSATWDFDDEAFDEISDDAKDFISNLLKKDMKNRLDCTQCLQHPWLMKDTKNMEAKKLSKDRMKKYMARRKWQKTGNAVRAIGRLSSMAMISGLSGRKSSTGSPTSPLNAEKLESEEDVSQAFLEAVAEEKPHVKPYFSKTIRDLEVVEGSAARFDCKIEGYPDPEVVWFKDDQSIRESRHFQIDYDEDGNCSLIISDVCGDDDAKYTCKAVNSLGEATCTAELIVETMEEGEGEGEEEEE
Chain of Tyrosine-protein kinase BTK (Q06187 whole entry): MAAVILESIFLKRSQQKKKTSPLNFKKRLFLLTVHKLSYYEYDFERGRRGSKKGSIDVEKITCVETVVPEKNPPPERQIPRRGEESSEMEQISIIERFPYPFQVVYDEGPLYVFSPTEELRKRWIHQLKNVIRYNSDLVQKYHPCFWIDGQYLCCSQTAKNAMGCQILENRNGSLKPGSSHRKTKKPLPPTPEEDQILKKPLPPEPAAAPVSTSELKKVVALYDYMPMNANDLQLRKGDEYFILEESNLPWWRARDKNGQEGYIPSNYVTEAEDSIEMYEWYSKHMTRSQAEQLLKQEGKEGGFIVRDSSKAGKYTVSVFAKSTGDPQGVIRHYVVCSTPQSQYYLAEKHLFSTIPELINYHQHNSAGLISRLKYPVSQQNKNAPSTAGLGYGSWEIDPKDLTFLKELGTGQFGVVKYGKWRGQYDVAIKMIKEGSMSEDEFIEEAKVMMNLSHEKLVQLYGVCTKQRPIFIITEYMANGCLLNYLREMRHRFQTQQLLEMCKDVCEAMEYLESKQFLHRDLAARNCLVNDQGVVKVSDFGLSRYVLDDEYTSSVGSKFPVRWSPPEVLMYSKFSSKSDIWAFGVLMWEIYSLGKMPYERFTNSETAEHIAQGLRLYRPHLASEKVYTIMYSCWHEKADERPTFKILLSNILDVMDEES
Chain of Casein kinase I isoform alpha (P48729 whole entry, canonical isoform): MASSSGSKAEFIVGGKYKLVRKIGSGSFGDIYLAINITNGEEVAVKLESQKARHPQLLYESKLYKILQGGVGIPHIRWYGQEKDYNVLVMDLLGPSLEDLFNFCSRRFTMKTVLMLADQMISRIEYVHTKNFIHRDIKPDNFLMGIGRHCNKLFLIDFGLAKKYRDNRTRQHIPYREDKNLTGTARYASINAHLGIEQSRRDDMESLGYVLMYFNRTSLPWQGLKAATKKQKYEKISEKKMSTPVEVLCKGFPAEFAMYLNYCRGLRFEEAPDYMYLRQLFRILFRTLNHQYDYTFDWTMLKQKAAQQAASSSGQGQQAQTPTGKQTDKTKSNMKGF
Chain of AP2-associated protein kinase 1 (Q2M2I8 whole entry): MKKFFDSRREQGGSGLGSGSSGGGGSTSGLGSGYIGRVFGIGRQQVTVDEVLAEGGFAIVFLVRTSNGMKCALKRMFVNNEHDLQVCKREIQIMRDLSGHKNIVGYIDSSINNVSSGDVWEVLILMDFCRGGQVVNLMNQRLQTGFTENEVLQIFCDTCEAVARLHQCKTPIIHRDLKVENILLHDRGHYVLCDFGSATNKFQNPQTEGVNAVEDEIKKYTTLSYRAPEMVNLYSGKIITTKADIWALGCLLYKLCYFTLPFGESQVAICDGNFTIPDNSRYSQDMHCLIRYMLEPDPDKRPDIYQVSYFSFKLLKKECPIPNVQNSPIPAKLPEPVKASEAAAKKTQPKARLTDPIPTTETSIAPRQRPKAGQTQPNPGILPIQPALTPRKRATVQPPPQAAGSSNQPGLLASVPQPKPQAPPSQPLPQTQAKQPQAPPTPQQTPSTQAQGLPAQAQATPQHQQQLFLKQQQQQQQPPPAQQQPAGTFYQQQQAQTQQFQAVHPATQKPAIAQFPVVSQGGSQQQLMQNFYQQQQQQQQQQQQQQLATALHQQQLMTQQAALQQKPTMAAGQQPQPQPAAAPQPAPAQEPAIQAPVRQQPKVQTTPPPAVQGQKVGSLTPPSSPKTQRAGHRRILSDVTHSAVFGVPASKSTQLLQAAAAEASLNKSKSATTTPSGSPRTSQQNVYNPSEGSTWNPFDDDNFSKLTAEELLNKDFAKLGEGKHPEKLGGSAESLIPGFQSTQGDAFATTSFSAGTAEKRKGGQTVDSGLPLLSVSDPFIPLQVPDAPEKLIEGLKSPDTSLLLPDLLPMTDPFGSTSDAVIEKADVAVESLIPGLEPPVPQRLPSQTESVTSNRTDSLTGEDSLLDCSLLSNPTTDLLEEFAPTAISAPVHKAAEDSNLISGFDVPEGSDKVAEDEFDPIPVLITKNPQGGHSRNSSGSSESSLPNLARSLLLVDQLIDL

Regarding `Cc1nc2cc(-c3nn(C(C)C)c4ncnc(N)c34)ccc2o1`, the Kd (usually the free concentration of one partner at which half of the binding sites on the other are occupied at equilibrium, for simple one-to-one binding) at TGF-beta receptor type-2 was > 30 µM (inactive); in assay [1], > 30 µM (inactive); in assay [2], > 30 µM (inactive); in [3] it was > 30 µM (inactive); in [4] it was > 30 µM (inactive); in assay [5] it was 0.178 µM (active). In addition, the Kd in assay [6], in [7] and in [8] was > 30 µM (inactive) each time.
In the case of `Nc1ncnc2c1c(-c1cccc(OCc3ccccc3)c1)cn2[C@H]1C[C@@H](CN2CCC2)C1` [AEW-541], the Kd on TGF-beta receptor type-2 is > 30 µM (inactive); in assay [1], > 30 µM (inactive); in assay [2], > 30 µM (inactive); in assay [3], > 30 µM (inactive); in [4] it was > 30 µM (inactive); in [5], 0.355 µM (active). Further, the Kd in [6], in [7] and in assay [8] was > 30 µM (inactive) each time.
As for `COc1cc(Nc2ncc3c(n2)-c2ccc(Cl)cc2C(c2c(F)cccc2OC)=NC3)ccc1C(=O)O` [ALISERTIB], the Kd (at TGF-beta receptor type-2; in assay [1]; in [3]; in assay [4]; in assay [5]; in assay [7]) was > 30 µM (inactive) each time. Further, the Kd in assay [8] was > 30 µM (inactive).
Regarding `CNC(=O)c1ccccc1Sc1ccc2c(/C=C/c3ccccn3)n[nH]c2c1` [AXITINIB], the Kd in assay [3] and in [8] was > 30 µM (inactive) in each case.
As for `CC(C)(C)c1nc(-c2cccc(NS(=O)(=O)c3c(F)cccc3F)c2F)c(-c2ccnc(N)n2)s1` [DABRAFENIB], the dissociation constant Kd at TGF-beta receptor type-2 was 2.53 µM (active); in [1], > 30 µM (inactive); in [9], > 30 µM (inactive); in assay [3], > 30 µM (inactive); in assay [4], > 30 µM (inactive); in assay [5], 0.106 µM (active). Besides, the Kd in [7] and in [8] was > 30 µM (inactive) in each case.
For `Cn1cc(C2=C(c3cn(C4CCN(Cc5ccccn5)CC4)c4ccccc34)C(=O)NC2=O)c2ccccc21` [ENZASTAURIN], the Kd in assay [3] and in assay [8] was > 30 µM (inactive) each time.
For `Cc1cccc(-c2nn3c(c2-c2ccnc4ccc(C(N)=O)cc24)CCC3)n1` [GALUNISERTIB], the Kd at TGF-beta receptor type-2 is > 30 µM (inactive); in assay [1], > 30 µM (inactive); in assay [2], > 30 µM (inactive); in assay [3] it was > 30 µM (inactive); in assay [4] it was > 30 µM (inactive); in [5], 0.038 µM (active). Further, the Kd in assay [6], in [7] and in [8] was > 30 µM (inactive) throughout.
Consider `C[C@@H](Oc1cc(-n2cnc3ccc(CN4CCN(C)CC4)cc32)sc1C(N)=O)c1ccccc1C(F)(F)F` [GSK-461364], for which the Kd in assay [3] and in assay [8] was > 30 µM (inactive) in each case.
For `CCn1cc(-c2ccnc3[nH]c(-c4cccc(CN(C)C)c4)cc23)c(-c2ccc(NC(=O)N(C)C)cc2)n1` [GSK-1070916], the Kd on TGF-beta receptor type-2 was > 30 µM (inactive); in [1], > 30 µM (inactive); in [2], > 30 µM (inactive); in [3], > 30 µM (inactive); in [4], > 30 µM (inactive); in [5], 0.611 µM (active). Besides, the Kd in [7] and in [8] was > 30 µM (inactive) in each case.
With `O=C(Nc1cc(C(F)(F)F)cc(C(F)(F)F)c1)c1cc(Cl)ccc1O` [IMD-0354], the Kd (on TGF-beta receptor type-2; in assay [1]; in [9]; in assay [3]; in [4]; in [5]) was > 30 µM (inactive) in each case. Further, the values for the Kd in assay [6], in assay [7] and in assay [8] were > 30 µM (inactive), 3.22 µM and > 30 µM (inactive), respectively.
With `Cc1[nH]c(/C=C2\C(=O)Nc3ccccc32)c(C)c1CCC(=O)O` [ORANTINIB], the Kd on TGF-beta receptor type-2 is > 30 µM (inactive); in [1] it was 1.17 µM (active); in assay [3], > 30 µM (inactive); in assay [5], > 30 µM (inactive); in assay [7] it was > 30 µM (inactive); in [8], > 30 µM (inactive).
For `NC(=O)c1c(OCc2c(F)cc(Br)cc2F)nsc1NC(=O)NCCCCN1CCCC1` [OSI-632], the Kd in assay [1] was > 30 µM (inactive); in assay [3], > 30 µM (inactive); in assay [4], > 30 µM (inactive); in assay [5], 0.958 µM (active); in assay [7] it was > 30 µM (inactive); in [8], > 30 µM (inactive).
For the molecule `CCOc1cc2ncc(C#N)c(Nc3ccc(F)c(Cl)c3)c2cc1NC(=O)/C=C/CN(C)C` [PELITINIB], the Kd (on TGF-beta receptor type-2; in [1]; in assay [9]; in assay [3]; in assay [4]; in assay [5]) was > 30 µM (inactive) each time. Moreover, the Kd was 0.514 µM (active) in assay [6], > 30 µM (inactive) in [7] and > 30 µM (inactive) in assay [8].
As to `CC(=O)NCC(=O)N1[C@@H]2CC[C@H]1c1ccc(Nc3ncc(C(F)(F)F)c(NC4CCC4)n3)cc12` [PF-03814735], the Kd on TGF-beta receptor type-2 is > 30 µM (inactive); in assay [1], 0.009 µM (active); in [3], > 30 µM (inactive); in assay [4], > 30 µM (inactive); in assay [5] it was > 30 µM (inactive); in assay [7], > 30 µM (inactive). Further, the Kd in [8] is > 30 µM (inactive).
With `O=C(NOCCO)c1cc(CN2OCCCC2=O)c(F)c(F)c1Nc1ccc(I)cc1F` [RO-4987655], the Kd in assay [3] and in [8] was > 30 µM (inactive) each time.
As for `N#CC[C@H](C1CCCC1)n1cc(-c2ncnc3[nH]ccc23)cn1` [RUXOLITINIB], the Kd in assay [3] and in [8] was > 30 µM (inactive) each time.
On to `Cc1cc(Nc2ncnc3ccc(NC4=NC(C)(C)CO4)cc23)ccc1Oc1ccn2ncnc2c1` [TUCATINIB], for which the Kd (on TGF-beta receptor type-2; in [1]; in assay [2]; in assay [3]; in [4]; in [5]) was > 30 µM (inactive) throughout. Also, the Kd in [6], in assay [7] and in [8] was > 30 µM (inactive) throughout.
In the case of `Cn1ncc(Cl)c1-c1cc(C(=O)N[C@H](CN)Cc2ccc(F)c(F)c2)oc1Cl` [UPROSERTIB], the Kd in assay [1] is > 30 µM (inactive); in assay [9] it was 1.68 µM (active); in assay [2], > 30 µM (inactive); in [3], > 30 µM (inactive); in [5] it was > 30 µM (inactive); in assay [6] it was > 30 µM (inactive). The Kd in assay [7] and in assay [8] was > 30 µM (inactive) throughout.
For the molecule `C[C@@H](N)c1ccc(C(=O)Nc2ccnc3[nH]ccc23)cc1` [Y-39983], the Kd on TGF-beta receptor type-2 is > 30 µM (inactive); in assay [1] it was 0.122 µM (active); in assay [2], > 30 µM (inactive); in assay [3] it was > 30 µM (inactive); in assay [4], > 30 µM (inactive); in [5], > 30 µM (inactive). The Kd in assay [6], in assay [7] and in [8] was > 30 µM (inactive) each time.

Source of the values: ChEMBL document CHEMBL3991601, “The target landscape of clinical kinase drugs” (Science, 2017).
